In the Kinase Knowledgebase extract (Sharma et al. 2016):

Biological target: CDK2 (UniProt P24941)
Test: Enzyme Assay

CN1CC[C@H](c2c(O)cc(O)c3c(=O)cc(SCc4ccccc4)oc23)[C@H](O)C1
IC50: < 20 µM

CCSc1cc(=O)c2c(O)cc(OC)c([C@H]3CCN(C)C[C@H]3O)c2o1
IC50: < 20 µM

CN1CCC(c2c(O)cc(O)c3c(=O)cc(SCc4ccc(C(C)(C)C)cc4)oc23)C(O)C1 (configuration not stated)
IC50: < 20 µM

CCc1ccc(Sc2cc(=O)c3c(O)cc(O)c(C4CCN(C)CC4O)c3o2)cc1 (configuration not stated)
IC50: < 20 µM

CN1CC[C@H](c2c(O)cc(O)c3c(=O)cc(Oc4ccccc4)oc23)[C@H](O)C1
IC50: < 20 µM

COC(=O)CCSc1cc(=O)c2c(O)cc(O)c([C@H]3CCN(C)C[C@H]3O)c2o1
IC50: < 20 µM

CN1CCC(c2c(O)cc(O)c3c(=O)cc(SCCO)oc23)C(O)C1 (configuration not stated)
IC50: < 20 µM

COc1ccc(CSc2cc(=O)c3c(O)cc(O)c(C4CCN(C)CC4O)c3o2)cc1 (configuration not stated)
IC50: < 20 µM

CC(=O)NCCSc1cc(=O)c2c(O)cc(O)c([C@H]3CCN(C)C[C@H]3O)c2o1
IC50: < 20 µM

CN1CC[C@H](c2c(O)cc(O)c3c(=O)cc(SCCO)oc23)[C@H](O)C1
IC50: < 20 µM

CN1CCC(c2c(O)cc(O)c3c(=O)cc(Sc4ccccc4Cl)oc23)C(O)C1 (configuration not stated)
IC50: < 20 µM

Cc1ccc(Sc2cc(=O)c3c(O)cc(O)c(C4CCN(C)CC4O)c3o2)cc1C (configuration not stated)
IC50: < 20 µM

CN1CC[C@H](c2c(O)cc(O)c3c(=O)cc(Sc4ccccc4)oc23)[C@H](O)C1
IC50: < 20 µM

COc1ccc(Sc2cc(=O)c3c(O)cc(O)c(C4CCN(C)CC4O)c3o2)cc1 (configuration not stated)
IC50: < 20 µM

CN1CCC(c2c(O)cc(O)c3c(=O)cc(Sc4ccc(C(C)(C)C)cc4)oc23)C(O)C1 (configuration not stated)
IC50: < 20 µM

COc1ccc(Sc2cc(=O)c3c(O)cc(O)c([C@H]4CCN(C)C[C@H]4O)c3o2)cc1
IC50: < 20 µM

COc1ccc(CSc2cc(=O)c3c(O)cc(O)c([C@H]4CCN(C)C[C@H]4O)c3o2)cc1
IC50: < 20 µM

CC(=O)NCCSc1cc(=O)c2c(O)cc(O)c(C3CCN(C)CC3O)c2o1 (configuration not stated)
IC50: < 20 µM

CCCCSc1cc(=O)c2c(O)cc(O)c([C@H]3CCN(C)C[C@H]3O)c2o1
IC50: < 20 µM

CN1CCC(c2c(O)cc(O)c3c(=O)cc(Sc4ccc(OC(F)(F)F)cc4)oc23)C(O)C1 (configuration not stated)
IC50: < 20 µM

CCSc1cc(=O)c2c(O)cc(O)c([C@H]3CCN(C)C[C@H]3O)c2o1
IC50: < 20 µM

CN1CC[C@H](c2c(O)cc(O)c3c(=O)cc(Sc4ccccc4Cl)oc23)[C@H](O)C1
IC50: < 20 µM
